Experiments:
uric acid clearance = test: Accelerated uric acid clearance in rats caused by administration of compound (I); type: in vivo; conditions: male rats, mean of four measurements minus control value
Source text: Accelerated uric acid clearance in rats caused by administration of compound (I).
Nine-week-old male rats were employed for the test. As a pre-treatment for measuring uric acid clearance and inulin clearance, each animal was anesthetized with pentobarbital sodium, and canulae were placed into the right femoral artery (for blood collection), left femoral vein (for drug infusion), and urinary bladder (for urine collection) of each animal. 60% Urethane was subcutaneously administered to each animal at a dose of 2 ml/kg body weight and then 1.7% potassium oxonate/1.5% inulin/4% mannitol/0.9% saline solution was intravenously administered. After that, 0.5% pottasium oxonate/4% mannitol/1.5% inulin/0.9% saline was infused to each animal at a flow rate of 0.05 ml per minute on a hot plate kept at 30° C. Thirty minutes later, 0.9% saline was intraperitonealy administered at 4 ml/kg body weight. After the equilibrium for another 30 minutes, arterial blood (0.2 ml each) samples were collected 6 times at every 20 minute interval and five 20-minute urine samples were collected. Immediately after the collection of every blood sample, the serum was separated therefrom, and the serum samples and the urine samples were stored in a refrigerator.
Immediately after the first collection of the urine sample, the test compound suspended in 1% gum arabic was intraperitoneally administered at 2 ml/kg body weight.
Uric acid both in the serum and in the urine was quantitatively analyzed by the method of Yonetani et al's. [Yonetani, Y.; Ishii, M.; Iwaki, K., Japanese J. Pharmacology 30, 829-840 (1980).] Inulin was also done substantially by the method of Vurek's and Pegram's [Vurek, G G., Pegram, S.E., Anal.Biochem., 16, 409-419 (1966}]. In order to analyze uric acid, 0.2 ml of diluted solution of deproteinized serum or urine was admixed with 2.5 ml of 0.4% dimedon/orthphosphoric acid solution and the resulting mixture was heated in a hot bath for 5 minutes. The mixture was then cooled in ice-cold water and the fluorescence was measured at 400 nm in the excitation wave length at 360 nm. Control experiments were carried out using an equivalent amount of positive control compounds, ([5-chloro-3-(2-methylphenyl)-4-oxo-4H-1-benzopyran-7-yl] oxy)acetic acid and benzbromarone.
a) Increment of urinary uric acid was calculated by subtracting the control value from the mean value of four measurements after the administration of test compound.
b) Increment of fractional excretion of uric acid [Uric acid clearance/inulin clearance (i.e., glomerular filtration rate)] was calculated by subtracting the control value from the mean value of four measurements after the administration of test compound.

[1] = molecular target: T1, xanthine oxidase (milk xanthine oxidase) (Bos taurus, UniProt P80457); test: Evaluation of xanthine oxidase inhibition activity; type: biochemical; conditions: phosphate buffer pH=8, absorbance at 293 nm, 10 minutes, read-out: IC50 (50% inhibition rate)
T1 construct: purchased Boelinger Manheim; host or cells: milk
T1 sequence (P80457 whole entry): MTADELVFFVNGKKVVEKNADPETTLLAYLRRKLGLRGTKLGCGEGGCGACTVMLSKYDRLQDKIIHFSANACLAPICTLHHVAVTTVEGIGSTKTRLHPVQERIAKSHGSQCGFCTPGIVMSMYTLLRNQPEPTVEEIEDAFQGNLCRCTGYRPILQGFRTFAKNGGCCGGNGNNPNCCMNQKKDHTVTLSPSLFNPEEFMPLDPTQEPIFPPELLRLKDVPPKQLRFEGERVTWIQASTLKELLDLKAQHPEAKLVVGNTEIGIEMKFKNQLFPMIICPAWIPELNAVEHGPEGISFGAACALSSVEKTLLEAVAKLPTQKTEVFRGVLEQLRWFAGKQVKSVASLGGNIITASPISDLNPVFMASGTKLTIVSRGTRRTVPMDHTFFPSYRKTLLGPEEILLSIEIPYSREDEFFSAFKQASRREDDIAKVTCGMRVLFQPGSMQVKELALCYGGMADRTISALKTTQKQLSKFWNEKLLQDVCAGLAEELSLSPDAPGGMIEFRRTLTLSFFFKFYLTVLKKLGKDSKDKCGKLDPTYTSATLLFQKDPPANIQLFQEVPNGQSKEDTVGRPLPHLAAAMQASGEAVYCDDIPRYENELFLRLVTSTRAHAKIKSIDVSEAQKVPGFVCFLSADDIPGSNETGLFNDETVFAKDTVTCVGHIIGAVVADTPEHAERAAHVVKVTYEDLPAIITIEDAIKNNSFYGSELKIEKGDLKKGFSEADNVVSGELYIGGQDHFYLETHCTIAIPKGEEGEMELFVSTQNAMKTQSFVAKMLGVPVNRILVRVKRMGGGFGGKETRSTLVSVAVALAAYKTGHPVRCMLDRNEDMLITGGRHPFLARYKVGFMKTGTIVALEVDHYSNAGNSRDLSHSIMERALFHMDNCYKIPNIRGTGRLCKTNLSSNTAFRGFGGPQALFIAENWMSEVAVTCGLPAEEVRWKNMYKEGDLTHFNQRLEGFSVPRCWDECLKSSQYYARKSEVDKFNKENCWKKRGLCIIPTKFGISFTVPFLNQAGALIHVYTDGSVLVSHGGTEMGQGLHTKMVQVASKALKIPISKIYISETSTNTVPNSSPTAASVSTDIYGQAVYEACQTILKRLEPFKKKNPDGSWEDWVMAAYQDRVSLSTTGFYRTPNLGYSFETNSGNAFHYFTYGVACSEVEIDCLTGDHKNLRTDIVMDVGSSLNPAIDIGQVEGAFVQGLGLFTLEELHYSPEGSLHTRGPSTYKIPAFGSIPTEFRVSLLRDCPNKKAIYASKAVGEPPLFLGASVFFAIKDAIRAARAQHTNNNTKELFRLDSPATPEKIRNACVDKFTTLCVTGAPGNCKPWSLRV
Experimental: A mixture of 0.05M phosphate buffer (pH=8, 2 ml), 5.0×10^-4 M xanthine solution (0.5 ml), and an aqueous solution of a test compound (0.3 ml) was charged in a cell for the spectrophotometer. An aqueous solution of xanthine oxidase (200 times dilution, Boelinger Manheim, milk xanthine oxidase) (0.2 ml) was added to the mixture. The absorbance at 293 nm was measured before, and 10 minutes after, the addition of xanthine. The increase in the two measurements is attributable to the amount of synthesized uric acid. Control experiment was carried out using water instead of the test compound solution.

Structure (SMILES) | ΔUuaV (increment of urinary uric acid) (uric acid clearance; dose 10 mg/kg intraperitoneal) [mg/kg-min] | also measured
O=C(O)COc1cc(Cl)c2c(c1Cl)OC1(CCCCC1)CC2=O [Example 11] | 0.022 | –
COc1cc(OCC(=O)O)cc2c1C(=O)CC1(CCCCC1)O2 [Example 21, {(5-Methoxy-3,4-dihydro-4-oxospiro[2H-1-benzopyran-2,1'-cyclohexan]-7-yl)oxy}acetic acid] | 0.046 | IC50 [1]: 65 µM
CCOc1cc(OCC(=O)O)cc2c1C(=O)CC1(CCCCC1)O2 [Example 22] | 0.029 | –
O=C(O)COc1cc(OCc2ccccc2)c2c(c1)OC1(CCCCC1)CC2=O [Example 23] | 0.051 | –
CC(C)Oc1cc(OCC(=O)O)cc2c1C(=O)CC1(CCCCC1)O2 [Example 24] | 0.024 | –
C=CCOc1cc(OCC(=O)O)cc2c1C(=O)CC1(CCCCC1)O2 [Example 25] | 0.043 | –
COc1cc(OCC(=O)O)cc2c1C(=O)C(C)C1(CCCCC1)O2 (stereo not shown) [Example 30] | 0.036 | –
COc1cc(OCC(=O)O)cc2c1C(=O)CC(C)(C)O2 [Example 33] | – | ΔUuaV (increment of urinary uric acid) (uric acid clearance; dose 50 mg/kg intraperitoneal): 0.047 mg/kg-min
COc1c(OCC(=O)O)ccc2c1OC1(CCCCC1)CC2=O [Example 34] | 0.040 | –
O=C(O)COc1cc(O)c2c(c1)SC1(CCCCC1)CC2=O [Example 49, 2-{(5-Hydroxy-3,4-dihydro-4-oxospiro[2H-1-benzothiine-2,1'-cyclohexan]-7-yl)oxy}acetic acid] | 0.082 | –
COc1cc(OCC(=O)O)cc2c1C1(CC3(CCCCC3)O2)SCCS1 [Example 54, {(5-Methoxy-3,4-dihydrodispiro[2H-1-benzopyran-2,1'-cyclohexan-4,2"-[1,3]dithiolan]-7-yl)oxy}acetic acid] | 0.039 | –
COc1cc(OCC(=O)OCn2ncc3c(=O)[nH]cnc32)cc2c1C(=O)CC1(CCCCC1)O2 [Example 61] | – | ΔUuaV (increment of urinary uric acid) (uric acid clearance; dose 25 mg/kg intraperitoneal): -0.006 mg/kg-min

Reference: patent publication US5268386A, “Certain 3,4-dihydro 4-oxospiro [2H-1 benzopyrans] useful for treating hyperuricemia” (Shionogi & Co., Ltd., priority 1989, dated 1993)
